Where a name gives a salt, the structure may show the parent alone.
Assay: Saturation and payload limits for dip coating a polyester mesh (Parietex monofilament mesh) with bupivacaine HCl solution (FIG. 8)
Type: physicochemical
Conditions: polyester mesh without a polymer film
Description: Further, it is believed that spraying films on a medical device (e.g., mesh) compared to other conventional methods, such as dip coating, provides increased loading of the therapeutic agent.
More particularly FIG. 8 illustrates the loading limits for a polyester mesh (Parietex™ monofilament mesh) without a polymer film.

## CCCCN1CCCCC1C(=O)Nc1c(C)cccc1C (centres unmarked) [bupivacaine hydrochloride]
Solution in MeOH
  saturation and payload limits for dip coating: 12 % w/v
Solution in water
  saturation and payload limits for dip coating: 5 % w/v

— US20120009240A1, “Films for Delivery of a Therapeutic Agent” (priority 2010, published 2012)
